Test results published in patent publication US4888345A, “4,8-disubstituted-1,2-dihydro and 1,2,3,4-tetrahydroimidazo-[1,5-a] pyrimidines” (American Cyanamid Company, priority 1988, dated 1989).

Legend:
[1] = test system: Spontaneously Hypertensive Rats; assay: Hypotensive activity: reduction of mean arterial blood pressure in spontaneously hypertensive rats (method of Chan and Poorvin); assay type: in vivo; conditions: gavage, two doses of 100 mg/kg or less 24 hours apart; measured 28 hours after initial dose; average MABP of the rats used 160±1.5 mm Hg
Procedure: Certain of the novel compounds of the present invention are active hypotensive agents at nontoxic doses when administered to mammals. These compounds were tested for hypotensive activity by the method of P. S. Chan and D. Poorvin, Clinical and Experimental Hypertension, 1(6), 817-830 (1979). Male, 16 week old, spontaneously hypertensive rats of the Okamoto strain having an average mean arterial blood pressure of 160±1.5 mm of mercury are used in the test. One to 3 rats are used per test compound. A rat is dosed by gavage with a test compound, suspended in 2% pre-boiled starch at a concentration of 50 mg/ml, at a dose of 100 mg/kg of body weight or less, with 0.9% sodium chloride loading at a dose of 25 ml/kg of body weight. A second identical dose of the test compound, without sodium chloride loading is given 24 hours later. At 28 hours after the initial dose the mean arterial blood pressure is measured by the method of Chan and Poorvin vide supra. The procedure is repeated in a second and third rat when necessary.

[2] = test system: Brain-Specific Receptors of Rats (3H-benzodiazepine binding); assay: Inhibition of the binding of 3H-benzodiazepine to brain-specific receptors of rats (antianxiety); design: species or system rat (Wistar strain); conditions: rat cortex P2-synaptosomal fraction; 3H-diazepam (1.5 nM) or 3H-flunitrazepam (1.0 nM); 30 minutes in ice, pH 7.4; test concentration not given
From the text: The antianxiety properties of certain of the novel compounds of the present invention have been establish in a test which measures the ability of a test compound to inhibit the binding of tritiated benzodiazepines to brain-specific receptors of mammals. A modification of the method described by R. F. Squires, et al., Nature, 266, No. 21, pg 732 (April 1977) and H. Mohler, et al., Science, 198:849 (1977) was employed.
Male albino rats (Wistar strain, weighing 150 g 200 g each) were used. The test compounds were solubilized in dimethylformamide, acetic acid, ethanol or hydrochloric acid.
Whole cortex of rats was homogenized gently in 20 volumes of ice-cold 0.32 M sucrose, centrifuged twice at 1000 g for 10 minutes and then recentrifuged at 30,000 g for 20 minutes to produce a crude P2 -synaptosomal fraction. […]
The binding assay consisted of 300 μl of the P2 -fraction suspension (0.2-0.4 mg protein), 100 μl of test drug and 100 μl of ^3 H-diazepam (1.5 nM, final concentration) or ^3 H-flunitrazepam (1.0 nM, final concentration) which was added to 1.5 ml of 50 mM Tris.HCl (pH 7.4). […] After drying at 50°-60° C. for 30 minutes, 10 ml of diluent was added and the radioactivity determined in a scintillation counter.
Inhibition of binding was calculated by the difference between total binding and binding in the presence of test compound, divided by the total binding, ×100. […]

SMILES | MABP/mm Hg (mean arterial blood pressure after dosing) [1] [mm Hg] | % Inhibition of 3H-benzodiazepine binding [2] [%]
NC(=O)c1ncn2c1NCC=C2c1cccc(C(F)(F)F)c1 [Example 26, 1,2-Dihydro-4-[3-(trifluoromethyl)phenyl]imidazo-[1,5-a]pyrimidine-8-carboxamide] | 111 | –
NC(=O)c1ncn2c1NCC=C2c1cccc(Cl)c1 [Example 27, 4-(3-Chlorophenyl)-1,2-dihydroimidazo[1,5-a]-pyrimidine-8-carboxamide] | 132 | –
NC(=O)c1ncn2c1NCC=C2c1cc(Cl)ccc1Cl [Example 28, 4-(2,5-Dichlorophenyl)-1,2-dihydroimidazo[1,5-a]-pyrimidine-8-carboxamide] | 106 | –
NC(=O)c1ncn2c1NCC=C2c1ccccc1 [Example 29, 1,2-Dihydro-4-phenylimidazo[1,5-a]-pyrimidine-8-carboxamide] | 121 | –
COc1cccc(C2=CCNc3c(C(N)=O)ncn32)c1 [Example 30, 1,2-Dihydro-4-(3-methoxyphenyl)-imidazo[1,5-a]pyrimidine-8-carboxamide] | – | 27
NC(=O)c1ncn2c1NCC=C2c1cccc([N+](=O)[O-])c1 [Example 35, 1,2-Dihydro-4-(3-nitrophenyl)imidazo-[1,5-a]pyrimidine-8-carboxamide] | 139 | –
NC(=O)c1ncn2c1NCC=C2c1cccnc1 [Example 37, 1,2-Dihydro-4-(3-pyridinyl)imidazo-[1,5-a]pyrimidine-8-carboxamide] | 138 | –
NC(=O)c1ncn2c1NCC=C2c1ccc(N2CCOCC2)cc1 [Example 38, 1,2-Dihydro-4-[4-(4-morpholinyl)-phenyl]imidazo[1,5-a]pyrimidine-8-carboxamide] | – | 29
